Measured values: patent US12643879B2, “Functionalized heterocyclic compounds as modulators of stimulator of interferon genes (STING)” (RYVU THERAPEUTICS S.A., priority 2019, dated 2026)
Counter-ions that a name gives are not always drawn. Like-named read-outs stand apart in the source and are kept apart here.

Experiments:
[1] = test system: interferon regulatory factor (IRF) pathway in THP-1 dual cells; assay: THP-1 Dual reporter assay, IRF pathway (luciferase); format: cell-based; settings: Homo sapiens, THP1-Dual, read-out: THP1 Dual EC50 (μM) IRF
Method in brief: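 THP-1 dual reporter cells, 18 h STING agonist stimulation. IRF: medium + luciferase reagent, luminescence read immediately (ISG54/5×ISRE reporter).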

human STING = human STING (Homo sapiens, UniProt Q86WV6); assay: Fluorescence Thermal Shift assay (binding to STING); settings: STING 0.1 mg/mL, SyproOrange, 25 to 99° C.
human STING, sequence (Q86WV6 whole entry H232R): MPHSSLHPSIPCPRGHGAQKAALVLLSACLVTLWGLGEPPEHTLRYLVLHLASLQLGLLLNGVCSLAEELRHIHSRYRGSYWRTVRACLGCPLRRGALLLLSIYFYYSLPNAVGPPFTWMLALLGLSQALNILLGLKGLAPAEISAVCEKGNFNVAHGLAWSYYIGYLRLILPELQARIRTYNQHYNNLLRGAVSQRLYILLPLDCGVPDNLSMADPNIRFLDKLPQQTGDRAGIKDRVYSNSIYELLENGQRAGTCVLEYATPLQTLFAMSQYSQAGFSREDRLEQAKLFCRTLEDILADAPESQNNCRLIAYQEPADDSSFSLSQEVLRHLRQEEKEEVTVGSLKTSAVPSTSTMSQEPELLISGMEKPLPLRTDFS
Description: Compounds, constructs and conjugates of the present invention were tested for binding to human STING in Fluorescence Thermal Shift assay. STING was preincubated with the compounds for 20 minutes in 50 mM Hepes, 150 mM NaCl, pH 7.5 in 15 or 16 μl volume, following by adding 4 μl of SyproOrange dye dilution (ThermoFisher, cat no. S-6651). Final STING concentration was 0.1 mg/mL. Thermal unfolding was performed in Real-Time PCR QuantStudio 6 Flex System (Applied Biosystems), from 25 to 99° C., with continuous ramp mode and ramp rate 0.033° C./s. The data were analyzed using Protein Thermal Shift Software (ThermoFisher).

[2] = test system: NF-κB pathway in THP-1 dual cells; assay: THP-1 Dual reporter assay, NF-κB pathway (SEAP); format: cell-based; settings: Homo sapiens, THP1-Dual, read-out: THP1 Dual EC50 (μM) NFkB
Method in brief: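 Compounds (STING agonists) stimulated THP-1 dual cells for 18 h; the cells carry an ISG54 promoter/ISRE-driven luciferase (IRF) and an IFN-β minimal promoter/NF-κB element-driven SEAP. Luciferase in conditioned medium was read by luminescence immediately; SEAP by absorbance at 630 or 655 nm after 1 or 2 h at 37° C.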

[3] = 18 h stimulation, absorbance at 630 or 655 nm

Compound | EC50 ([1]; 18 h stimulation, luminescence) | hSTING FTS binding assay (ΔT C. °) (human STING) | EC50 [2, 3] | EC50 ([1]; 18 h) | EC50 ([2]; 18 h)
Cc1cc(CN(Cc2cn(C)c3ccccc3c2=O)[C@H]2CCCN(c3ccc(N)nc3)C2)ccn1 [Example 2, 3-({[(3S)-1-(6-Aminopyridin-3-yl)piperidin-3-yl][(2-methylpyridin-4-yl)methyl]amino}methyl)-1-methyl-1,4-dihydroquinolin-4-one] | < 1 µM | +++ (+++=ΔTm ≥20° C.) | < 1 µM | – | –
Cc1cc(CN(Cc2cn(C)c3ccccc3c2=O)[C@H]2CCCN(c3ccc(CN)nc3)C2)ccn1.Cl [Example 3, 3-({[(3S)-1-[6-(Aminomethyl)pyridin-3-yl]piperidin-3-yl][(2-methylpyridin-4-yl)methyl]amino}methyl)-1-methyl-1,4-dihydroquinolin-4-one hydrochloride] | < 1 µM | + (+=ΔTm ≤10° C.) | 1 to 10 µM | – | –
Cc1ccc(N2CCC[C@H](N(Cc3ccnc(N)c3)Cc3cn(C4CC4)c4cc(F)c(F)cc4c3=O)C2)cn1.Cl [Example 5, 3-({[(2-Aminopyridin-4-yl)methyl][(3S)-1-(6-methylpyridin-3-yl)piperidin-3-yl]amino}methyl)-1-cyclopropyl-6,7-difluoro-1,4-dihydroquinolin-4-one hydrochloride] | < 1 µM | +++ (+++=ΔTm ≥20° C.) | < 1 µM | – | –
Cc1ccc(N2CCC[C@H](N(Cc3ccnc(C)c3)Cc3cn(C)c4cc(N5CCC(N)CC5)ccc4c3=O)C2)cn1.Cl [Example 6, 7-(4-Aminopiperidin-1-yl)-1-methyl-3-({[(3S)-1-(6-methylpyridin-3-yl)piperidin-3-yl][(2-methylpyridin-4-yl)methyl]amino}methyl)-1,4-dihydroquinolin-4-one hydrochloride] | 1 to 10 µM | ++ (++=10<ΔTm <20° C.) | 1 to 10 µM | – | –
Cc1ccc(N2CCC[C@H](N(Cc3ccnc(C)c3)Cc3cn(C4CC4)c4cc(N)c(F)cc4c3=O)C2)cn1 [Example 7, 7-Amino-1-cyclopropyl-6-fluoro-3-({[(3S)-1-(6-methylpyridin-3-yl)piperidin-3-yl][(2-methylpyridin-4-yl)methyl]amino}methyl)-1,4-dihydroquinolin-4-one] | < 1 µM | +++ (+++=ΔTm ≥20° C.) | < 1 µM | – | –
Cc1ccc(N2CCC[C@H](N(Cc3ccnc(C)c3)Cc3cn(C4CC4)c4cc(NCCN)c(F)cc4c3=O)C2)cn1 [Example 8, 7-[(2-Aminoethyl)amino]-1-cyclopropyl-6-fluoro-3-({[(3S)-1-(6-methylpyridin-3-yl)piperidin-3-yl][(2-methylpyridin-4-yl)methyl]amino}methyl)-1,4-dihydroquinolin-4-one] | < 1 µM | +++ (+++=ΔTm ≥20° C.) | < 1 µM | – | –
Cc1ccc(N2CCC[C@H](N(Cc3ccnc(C)c3)Cc3cn(C4CC4)c4cc(NCCN(C)C)c(F)cc4c3=O)C2)cn1 [Example 9, 1-Cyclopropyl-7-{[2-(dimethylamino)ethyl]amino}-6-fluoro-3-({[(3S)-1-(6-methylpyridin-3-yl)piperidin-3-yl][(2-methylpyridin-4-yl)methyl]amino}methyl)-1,4-dihydroquinolin-4-one] | < 1 µM | +++ (+++=ΔTm ≥20° C.) | < 1 µM | – | –
Cc1ccc(N2CCC[C@H](N(Cc3ccnc(C)c3)Cc3cn(C4CC4)c4cc(OCCN)c(F)cc4c3=O)C2)cn1 [Example 10, 7-(2-Aminoethoxy)-1-cyclopropyl-6-fluoro-3-({[(3S)-1-(6-methylpyridin-3-yl)piperidin-3-yl][(2-methylpyridin-4-yl)methyl]amino}methyl)-1,4-dihydroquinolin-4-one] | < 1 µM | +++ (+++=ΔTm ≥20° C.) | < 1 µM | – | –
CNCCOc1cc2c(cc1F)c(=O)c(CN(Cc1ccnc(C)c1)[C@H]1CCCN(c3ccc(C)nc3)C1)cn2C1CC1.Cl [Example 11, 1-Cyclopropyl-6-fluoro-7-[2-(methylamino)ethoxy]-3-({[(3S)-1-(6-methylpyridin-3-yl)piperidin-3-yl][(2-methylpyridin-4-yl)methyl]amino}methyl)-1,4-dihydroquinolin-4-one hydrochloride] | < 1 µM | +++ (+++=ΔTm ≥20° C.) | < 1 µM | – | –
Cc1ccc(N2CCC[C@H](N(Cc3ccnc(C)c3)Cc3cn(C4CC4)c4cc(N5CC[C@@H](N)C5)c(F)cc4c3=O)C2)cn1.Cl [Example 12, 7-[(3R)-3-Aminopyrrolidin-1-yl]-1-cyclopropyl-6-fluoro-3-({[(3S)-1-(6-methylpyridin-3-yl)piperidin-3-yl][(2-methylpyridin-4-yl)methyl]amino}methyl)-1,4-dihydroquinolin-4-one hydrochloride] | < 1 µM | +++ (+++=ΔTm ≥20° C.) | < 1 µM | – | –
Cc1ccc(N2CCC[C@H](N(Cc3ccnc(C)c3)Cc3cn(C4CC4)c4cc(N5CC[C@H](N)C5)c(F)cc4c3=O)C2)cn1.Cl [Example 13, 7-[(3S)-3-Aminopyrrolidin-1-yl]-1-cyclopropyl-6-fluoro-3-({[(3S)-1-(6-methylpyridin-3-yl)piperidin-3-yl][(2-methylpyridin-4-yl)methyl]amino}methyl)-1,4-dihydroquinolin-4-one hydrochloride] | < 1 µM | +++ (+++=ΔTm ≥20° C.) | < 1 µM | – | –
Cc1ccc(N2CCC[C@H](N(Cc3ccnc(C)c3)Cc3cn(C4CC4)c4cc(N5CC[C@@H](O)C5)c(F)cc4c3=O)C2)cn1.Cl [Example 14, 1-Cyclopropyl-6-fluoro-7-[(3R)-3-hydroxypyrrolidin-1-yl]-3-({[(3S)-1-(6-methylpyridin-3-yl)piperidin-3-yl][(2-methylpyridin-4-yl)methyl]amino}methyl)-1,4-dihydroquinolin-4-one hydrochloride] | < 1 µM | +++ (+++=ΔTm ≥20° C.) | < 1 µM | – | –
Cc1ccc(N2CCC[C@H](N(Cc3ccnc(C)c3)Cc3cn(C4CC4)c4cc(N5CC[C@H](CN)C5)c(F)cc4c3=O)C2)cn1 [Example 15, 7-[(3R)-3-(Aminomethyl)pyrrolidin-1-yl]-1-cyclopropyl-6-fluoro-3-({[(3S)-1-(6-methylpyridin-3-yl)piperidin-3-yl][(2-methylpyridin-4-yl)methyl]amino}methyl)-1,4-dihydroquinolin-4-one hydrochloride] | < 1 µM | +++ (+++=ΔTm ≥20° C.) | < 1 µM | – | –
Cc1ccc(N2CCC[C@H](N(Cc3ccnc(C)c3)Cc3cn(C4CC4)c4cc(N5CCC[C@H](N)C5)c(F)cc4c3=O)C2)cn1 [Example 16, 7-[(3S)-3-Aminopiperidin-1-yl]-1-cyclopropyl-6-fluoro-3-({[(3S)-1-(6-methylpyridin-3-yl)piperidin-3-yl][(2-methylpyridin-4-yl)methyl]amino}methyl)-1,4-dihydroquinolin-4-one] | < 1 µM | +++ (+++=ΔTm ≥20° C.) | < 1 µM | – | –
Cc1ccc(N2CCC[C@H](N(Cc3ccnc(C)c3)Cc3cn(C4CC4)c4cc(N5CCC[C@@H](N)C5)c(F)cc4c3=O)C2)cn1 [Example 17, 7-[(3R)-3-Aminopiperidin-1-yl]-1-cyclopropyl-6-fluoro-3-({[(3S)-1-(6-methylpyridin-3-yl)piperidin-3-yl][(2-methylpyridin-4-yl)methyl]amino}methyl)-1,4-dihydroquinolin-4-one] | < 1 µM | +++ (+++=ΔTm ≥20° C.) | < 1 µM | – | –
Cc1ccc(N2CCC[C@H](N(Cc3ccnc(C)c3)Cc3cn(CCN)c4ccccc4c3=O)C2)cn1 [Example 18, 1-(2-Aminoethyl)-3-({[(3S)-1-(6-methylpyridin-3-yl)piperidin-3-yl][(2-methylpyridin-4-yl)methyl]amino}methyl)-1,4-dihydroquinolin-4-one] | – | + (+=ΔTm ≤10° C.) | – | 1 to 10 µM | 1 to 10 µM
CNC1CCN(c2cc3c(cc2F)c(=O)c(CN(Cc2ccnc(C)c2)[C@H]2CCCN(c4ccc(C)nc4)C2)cn3C2CC2)CC1.Cl [Example 19, 1-cyclopropyl-6-fluoro-7-[4-(methylamino)piperidin-1-yl]-3-({[(3S)-1-(6-methylpyridin-3-yl)piperidin-3-yl][(2-methylpyridin-4-yl)methyl]amino}methyl)-1,4-dihydroquinolin-4-one hydrochloride] | < 1 µM | +++ (+++=ΔTm ≥20° C.) | < 1 µM | – | –
Cc1ccc(N2CCC[C@H](N(Cc3ccnc(C)c3)Cc3cn(C4CC4)c4cc(N5CC[C@@H](CN)C5)c(F)cc4c3=O)C2)cn1.Cl [Example 20, 7-[(3S)-3-(aminomethyl)pyrrolidin-1-yl]-1-cyclopropyl-6-fluoro-3-({[(3S)-1-(6-methylpyridin-3-yl)piperidin-3-yl][(2-methylpyridin-4-yl)methyl]amino}methyl)-1,4-dihydroquinolin-4-one hydrochloride] | < 1 µM | +++ (+++=ΔTm ≥20° C.) | < 1 µM | – | –
